Assay results reported in the NIST ThermoML archive (doi:10.1016/j.jct.2010.12.012).
Values joined by “and” are separate entries in the source; they are usually repeats but may differ in a detail not shown here. Equal entries are not always repeated. Numbers after ± are expanded uncertainties.

How the values were obtained:
[1] = refractive index (Na D-line) (dimensionless); settings: 298.15 K; 101.33 kPa; Liquid; Standard Abbe refractometry
[2] = 298.15 K; 101.33 kPa; Liquid; Vibrating tube method
[3] = xn = mol fraction of the nth substance listed; settings: 298.15 K, 101 kPa, Liquid, Vibrating tube method

Compound	refractive index [1]	mass density [2] [kg/m3]	other results
CCCCn1cc[n+](C)c1.COS(=O)(=O)[O-] [1-butyl-3-methylimidazolium methyl sulfate]	1.47792 ± 0.00037	1212.59 ± 0.41	
CC1CCCCC1 [methylcyclohexane]	1.42062 ± 0.00037	765.02 ± 0.24	
C1CCCCCCC1 [cyclooctane] + CCCCn1cc[n+](C)c1.COS(=O)(=O)[O-]			mass density ([3]; x1 = 0.02): 1207.63 ± 1.3 kg/m3
C1CCCCCCC1 [cyclooctane]	1.45598 ± 0.00037	831.47 ± 0.24	
CCCCn1cc[n+](C)c1.COS(=O)(=O)[O-] [1-butyl-3-methylimidazolium methyl sulfate] + CC1CCCCC1			mass density ([3]; x2 = 0.028): 1207.3 ± 1.3 kg/m3
CCCCn1cc[n+](C)c1.COS(=O)(=O)[O-] [1-butyl-3-methylimidazolium methyl sulfate] + C1CCCCC1			mass density ([3]; x2 = 0.039): 1204.53 ± 1.3 kg/m3
C1=CCCCC1 [cyclohexene] + CCCCn1cc[n+](C)c1.COS(=O)(=O)[O-]			mass density ([3]; x1 = 0.071): 1201.85 ± 1.9 kg/m3
C1CCCCC1 [cyclohexane]	1.4236 ± 0.00037	773.8 ± 0.24	
Cc1ccccc1 [toluene]	1.49399 ± 0.00031	862.17 ± 0.1	
CCCCn1cc[n+](C)c1.COS(=O)(=O)[O-] [1-butyl-3-methylimidazolium methyl sulfate] + Cc1ccccc1			mass density ([3]; x2 = 0.328): 1151 ± 1.2 kg/m3 and 1153.43 ± 1.2 kg/m3
C1=CCCCC1 [cyclohexene]	1.44378 ± 0.00037	805.69 ± 0.24	
